Results taken from the supplement of paper PMC10949913.

Tests used:
Conditions in all cases: 48 h
NCI-H295R [1] = assay: AC50 viability; higher = less potent
Outline: (§1)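 Three adrenocortical carcinoma cell lines were seeded at 500–1,000 cells/well in 5 µL medium in 1,536-well plates. 23 nL of each MIPE 5.0 library compound was added at 11 concentrations. After 48 h (per the protocol name), CellTiter-Glo was added for 15 minutes at room temperature and luminescence was read. Signals were normalised per plate to vehicle and empty-well controls. AC50 and area under the curve came from fitted concentration-response curves, keeping only inhibitory or non-responding curve classes.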

NCI-H295R [2] = assay: area under concentration-response curve (viability) (AUC (a.u.)); higher = less active
Outline: as §1

CU-ACC2 = assay: as above
Outline: as §1

CU-ACC1 = assay: as above
Outline: as §1

SMILES | AC50 viability (NCI-H295R [1]) [µM] | area under concentration-response curve (NCI-H295R [2]) | area under concentration-response curve (CU-ACC2) | area under concentration-response curve (CU-ACC1)
C[C@H]1CCC/C=C/C2C[C@H](O)C[C@H]2[C@H](O)/C=C/C(=O)O1 (stereo partly drawn) | 0.263 | 346 | 389 | 390
Cc1nc(NC(=O)N2CCCC2C(N)=O)sc1-c1ccnc(C(C)(C)C(F)(F)F)c1 (stereo not drawn) | 13.2 | 548 | 626 | 531
Nc1nccc(-c2ccc3noc(-c4ccc(Cl)cc4)c3c2)n1 | 0.263 | 354 | 345 | 344
Cc1cccc(/C=N/Nc2cc(N3CCOCC3)nc(OCCc3ccccn3)n2)c1 | 18.6 | 518 | 573 | 531
COc1cc(NCc2ccc3nc(N)nc(N)c3c2C)cc(OC)c1OC | 20.9 | 446 | 476 | 447
CC[C@]1(O)C[C@H]2CN(CCC3=C([NH]C4=C3C=CC=C4)[C@@](C2)(C(=O)OC)C5=C(OC)C=C6N(C)[C@H]7[C@](O)([C@H](OC(C)=O)[C@]8(CC)\C=C/CN9CC[C@]7([C@H]89)C6=C5)C(=O)OC)C1 | 3.32 | 444 | 560 | 504
C[C@H](CN(C)C)Oc1nc(Nc2cc3cccc(Cl)c3cn2)cnc1C#N | 14.8 | 456 | 585 | 491
COc1cc(OC)c(/C=C/[S+](=O)([O-])Cc2ccc(OC)c(OP(=O)(O)O)c2)c(OC)c1 | 0.0295 | 407 | 484 | 503
COc1cc(C(N)=O)ccc1NC(=O)[C@@H]1N[C@@H](CC(C)(C)C)[C@@]2(C(=O)Nc3cc(Cl)ccc32)[C@H]1c1cccc(Cl)c1F | 20.9 | 536 | 604 | 495
COc1cccc(-c2cc(F)ccc2C2Cc3nc(N)nc(C)c3C(=O)N2)n1 (stereo not drawn) | 0.59 | 403 | 413 | 379
COC1=CC=CC2=C1C(=NC(=N2)C3=CC=CS3)NN4C(=O)\C=C(C)/C4=O | 5.9 | 438 | 489 | 423
C/C(=C\c1csc(C)n1)[C@@H]1C[C@@H]2O[C@@H]2CCC[C@H](C)[C@H](O)[C@@H](C)C(=O)C(C)(C)[C@@H](O)CC(=O)O1 | 0.0132 | 347 | 569 | 462
c1cn2cc(-c3ccc4cn[nH]c4c3)nc(Nc3ccc(N4CCOCC4)cc3)c2n1 | 7.42 | 497 | 568 | 509
CCCCc1ccc2[nH]c(NC(=O)OC)nc2c1 | 0.148 | 438 | 511 | 480
CN1CCN([C@H]2CC[C@H](n3cc(-c4ccc(Oc5ccccc5)cc4)c4c(N)ncnc43)CC2)CC1 | 9.34 | 481 | 517 | 488
CC/C(=C(/CC)c1ccc(O)cc1)c1ccc(O)cc1 | 18.6 | 517 | 585 | 516
CCN1CCN(Cc2ccc(NC(=O)c3ccc(C)c(NC(=O)c4cncc(-c5cccs5)c4)c3)cc2C(F)(F)F)CC1 | 7.42 | 432 | 521 | 501
COc1ccc(N(C)c2nc(C)nc3ccccc23)cc1 | 0.00934 | 401 | 410 | 491
CC(C)NC[C@@H](C(=O)N1CCN(c2ncnc3c2[C@H](C)C[C@H]3O)CC1)c1ccc(Cl)cc1 | 3.72 | 417 | 555 | 487
c1ccc(CNc2nc(N3CCOc4ccccc43)nc3c2CCCC3)cc1 | 20.9 | 481 | 528 | 449
CCCCN(CCCC)CCC(O)c1cc2c(Cl)cc(Cl)cc2c2cc(C(F)(F)F)ccc12.Cl (stereo not drawn) | 23.5 | 548 | 615 | 538

SMILES | AC50 viability (NCI-H295R [1]) [µM] | area under concentration-response curve (NCI-H295R [2]) | area under concentration-response curve (CU-ACC2) | area under concentration-response curve (CU-ACC1)
Cc1cc(Nc2nc(N[C@@H](C)c3ncc(F)cn3)ncc2Cl)n[nH]1 | 14.8 | 488 | 544 | 472
Cc1cc(-c2nc3cc(F)ccc3s2)ccc1NC(=O)[C@@H](N)CCCCN | 23.5 | 538 | 599 | 555
C/C=C(/C)C(=O)O[C@H]1C(C)=C2[C@H]([C@@H]1OC(=O)CCCCCCC)[C@@](C)(OC(C)=O)C[C@H](OC(=O)CCC)[C@@]1(O)[C@H]2OC(=O)[C@@]1(C)O | 10.5 | 498 | 344 | 465
COC(=O)Nc1ccc(-c2nc(N3CCOCC3)c3cnn(C4CCN(Cc5cccnc5)CC4)c3n2)cc1 | 16.6 | 444 | 546 | 499
C[C@H]1Oc2cc(cnc2N)-c2c(nn(C)c2C#N)CN(C)C(=O)c2ccc(F)cc21 | 23.5 | 505 | 557 | 529
C=CCn1c(=O)c2cnc(Nc3ccc(N4CCN(C)CC4)cc3)nc2n1-c1cccc(C(C)(C)O)n1 | 1.86 | 393 | 531 | 452
COc1ccc(-n2c(C)c([N+](=O)[O-])c3ccc(O)cc32)cc1 | 14.8 | 549 | 615 | 519
O=C(O)c1ccc2c(c1)nc(Nc1cccc(Cl)c1)c1ccncc12 | 2.63 | 509 | 570 | 517
COc1ccc(/C=C\c2cc(OC)c(OC)c(OC)c2)cc1O | 0.00934 | 333 | 474 | 505
COc1ccc(OC)c(-c2nnc3ccc(-c4ccc(OC)c(O[C@@H]5CCOC5)c4)nn23)c1 | 5.9 | 541 | 624 | 482
CC(C)(O)[C@H]1CC[C@H](Nc2ccc3ncc(-c4cccc(C(F)(F)F)c4)n3n2)CC1 | 11.8 | 460 | 490 | 434
COc1ccc(-c2oc3ncnc(N)c3c2-c2ccc(NC(=O)Nc3cc(C(F)(F)F)ccc3F)cc2)cc1 | 13.2 | 471 | 518 | 469
O=C(/C=C/c1cccnc1)NCCCCC1CCN(C(=O)c2ccccc2)CC1 | 0.0209 | 403 | 355 | 300
CCOC(=O)[C@H](CCc1ccccc1)N[C@@H](C)C(=O)N1CCC[C@H]1C(=O)O | 10.5 | 417 | 458 | 300
O=C(Nc1ncc(-c2cc(C(F)F)nn2-c2c(Cl)cccc2Cl)s1)C1CC1 | 0.661 | 467 | 465 | 501
CCNCC[S+]([O-])(=O)NC[C@]1(S\C(=N/N1C(=O)C(C)(C)C)NC(=O)C(C)(C)C)C2=CC=CC=C2 | 0.209 | 415 | 544 | 452
COc1cc([C@@H]2c3cc4c(cc3[C@@H](O[C@@H]3O[C@@H]5CO[C@@H](c6cccs6)O[C@H]5[C@H](O)[C@H]3O)[C@H]3COC(=O)[C@H]23)OCO4)cc(OC)c1O | 11.8 | 532 | 608 | 509
COc1ccc2c(c1OC)C(=O)O[C@H]2[C@H]1c2c(cc3c(c2OC)OCO3)CCN1C | 20.9 | 519 | 608 | 493
NC/1=N/C2=C([NH]C=N2)C(=S)N1 | 10.5 | 533 | 609 | 511
O=C\1NC(=O)\C(=C1C2=C[NH]C3=C2C=CC=C3)C4=C[NH]C5=C4C=CC=C5 | 16.6 | 510 | 562 | 504
CC(C)NC(=O)[C@H]1CC[C@@H](n2c(NC(=O)c3ccc(F)cc3)nc3ccc(CN4CCC(C(C)(C)O)CC4)cc32)CC1 | 9.11 | 612 | 626 | 465

SMILES | AC50 viability (NCI-H295R [1]) [µM] | area under concentration-response curve (NCI-H295R [2]) | area under concentration-response curve (CU-ACC2) | area under concentration-response curve (CU-ACC1)
NC(=O)Nc1cc(-c2ccc(CN3CCOCC3)cc2)sc1C(N)=O | 6.61 | 519 | 597 | 540
COc1ccccc1C(=O)Nc1cc2c(cc1N1CCCCC1)n(C)c(=O)n2C | 16.6 | 422 | 434 | 426
CN1c2ccccc2C(=O)N2CCc3c([nH]c4ccccc34)C21 (stereo not drawn) | 2.63 | 512 | 633 | 506
Nc1ncnc2c1ncn2[C@@H]1O[C@H](CO)C[C@H]1O | 20.9 | 528 | 612 | 550
C=CCc1cccc(/C=N/NC(=O)CN2CCN(Cc3ccccc3)CC2)c1O | 26.3 | 587 | 650 | 523
O=C(Nc1cccc(C(F)(F)F)c1)Nc1cc([S+](=O)([O-])NC2CC2)ccc1-c1ccsc1 | 23.5 | 514 | 568 | 525
C/C=C(\C)C(=O)N[C@@H](c1ccccc1)[C@@H](O)C(=O)O[C@H]1C[C@@]2(O)[C@@H](OC(=O)c3ccccc3)[C@@H]3[C@]4(OC(C)=O)CO[C@@H]4C[C@H](O)[C@@]3(C)C(=O)[C@H](OC(C)=O)C(=C1C)C2(C)C | 0.833 | 418 | 515 | 447
COc1ccc([S+](=O)([O-])Nc2cc(-c3csc(C#N)c3)ccc2C)cc1 | 0.0934 | 393 | 529 | 489
CC(C)(C)C1=CC(=C(NC(=O)C/2=C/NC3=C(C=CC=C3)C2=O)C=C1O)C(C)(C)C | 18.6 | 426 | 572 | 532
CN1CCN(CC1)C2=CC3=C([NH]C(=N3)C/4=C(\N)C5=C(F)C=CC=C5NC4=O)C=C2 | 20.9 | 479 | 574 | 485
N#Cc1c(NC(=O)c2cccc3ccccc23)sc2c1CCCC2 | 0.372 | 458 | 551 | 480
CO[C@H]1C[C@H]2OC[C@@]2(OC(C)=O)[C@H]3[C@H](OC(=O)C4=CC=CC=C4)[C@]5(O)C[C@H](OC(=O)[C@H](O)[C@@H](NC(=O)OC(C)(C)C)C6=CC=CC=C6)/C(=C(/[C@@H](OC)C(=O)[C@]13C)C5(C)C)C | 0.934 | 382 | 565 | 520
CCn1c(-c2nonc2N)nc2c(C#CC(C)(C)O)ncc(OC[C@H]3CCCNC3)c21 | 4.17 | 442 | 524 | 369
COc1cc(OC)c(/C=C/[S+](=O)([O-])Cc2ccc(OC)c(NCC(=O)[O-])c2)c(OC)c1 | 0.059 | 386 | 479 | 464
COc1ncc(-c2ccc3nccc(-c4ccnnc4)c3c2)cc1N[S+](=O)([O-])c1ccc(F)cc1F | 0.059 | 362 | 441 | 362
C[C@]12CC[C@@H]3c4ccc(O)cc4CC[C@H]3[C@@H]1CC[C@@H]2O | 11.8 | 471 | 478 | 437
C/C(=C\c1csc(C)n1)[C@@H]1C[C@@H]2O[C@]2(C)CCC[C@H](C)[C@H](O)[C@@H](C)C(=O)C(C)(C)[C@@H](O)CC(=O)O1 | 0.0118 | 346 | 548 | 467
CCC1=C[C@@H]2CN(C1)Cc1c([nH]c3ccccc13)[C@@](C(=O)OC)(c1cc3c(cc1OC)N(C)[C@H]1[C@@](O)(C(=O)OC)[C@H](OC(C)=O)[C@]4(CC)C=CCN5CC[C@]31[C@@H]54)C2 | 4.56 | 473 | 573 | 507
Oc1ccc(Nc2nc(-c3ccc(Cl)cc3)cs2)cc1 | 16.6 | 474 | 496 | 403
O=C(Nc1ccncc1)C(=O)c1cn(Cc2ccc(Cl)cc2)c2ccccc12 | 0.372 | 418 | 419 | 471
